Several values for one entry are separate records, joined by “and”; a condition that tells them apart may be missing. Equal entries are not always repeated. Where two headings read alike, the source gives them in different places.
What was measured:
MCF-7 cells [1] = assay: Concentration-dependent cellular uptake of neurosteroids into MCF-7 cells, Michaelis-Menten / Eadie-Hofstee analysis; type: cell-based, human; details: 5–200 µM; for Transport Mechanism Type 1 Vmax / Km / Transport Mechanism Type 2 Vmax: 30 min, 37 °C, Eadie-Hofstee plot analysis
Description: MCF-7 human breast adenocarcinoma cells (HTB-22; RRID: CVCL_0031) were purchased from the American Type Culture Collection (ATCC, Manassas, VA, USA). The cells were cultured in standard conditions (37 °C, 5% CO2) using Dulbecco’s modified Eagle medium (DMEM) supplemented with L-glutamine (2 mM), heat-inactivated fetal bovine serum (10%), penicillin (50 U/mL), and streptomycin (50 μg/mL). Once the cells reached 80% confluence in culture bottles (75 cm^2), the cells were washed twice with DPBS solution and harvested by trypsinization. All the following experiments were carried out with passage number 9–22.
Concentrations of neurosteroids (1–11) were determined by HPLC.
5.03 software (GraphPad Software, San Diego, CA, USA).

MCF-7 cells [2] = details: human, 30 min, 25 µM
Description: For the cellular uptake experiments, MCF-7 cells were seeded at the density of 1 × 10^5 cells/well onto 24-well plates a day before the experiments. Cellular uptake of neurosteroids (1–11) dissolved in DMSO and diluted with HBSS or MES buffer containing 5% 2-hydroxypropyl-β-cyclodextrin (HP-β-CD) was studied by incubating the cells with the pre-warmed compound solutions (250 μL) at the concentrations of 1–200 μM, at pH 7.4 (HBSS buffer), or in parallel at 5.0 (MES buffer), at 37 °C for 30 min (uptake was linear with all compounds up to 30 min). Subsequently, the cells were washed three times with ice-cold buffer and lysed with 250 μL of NaOH (0.1 M) for 60 min. The lysates were diluted with acetonitrile (ACN) with a ratio of 1:3 and centrifuged at 10,000× g for 10 min. The samples were analyzed by high-performance liquid chromatography (HPLC) methods described below. The concentrations of each compound were calculated from the standard curve and normalized to protein concentration in each 24-plate that was determined as a mean of three samples by Bio-Rad Protein Assay, based on the Bradford dye-binding method, using BSA as a standard protein and measuring the absorbance (595 nm) by multiplate reader (EnVision, Perkin Elmer, Inc., Waltham, MA, USA).
Concentrations of neurosteroids (1–11) were determined by HPLC. […]

[3] = system: efflux transporters (P-gp, BCRP, MRPs); assay: Cellular uptake into MCF-7 cells in the presence of efflux inhibitors (elacridar, MK-571); details: 25 µM compound; for Efflux transporter substrate status: 50 µM elacridar and MK-571, pH 7.4, MCF-7 cells
Description: The competitive uptake of 25 µM neurosteroids (1–11) in the presence of efflux inhibitors, 50 µM elacridar (P-gp and BCRP), and 50 µM MK-571 (MRPs) at pH 7.4 was carried out as described above, and the concentrations of studied compounds were analyzed with HPLC methods (below), calculated according to the standard curve, and normalized with protein concentration measured to each 24-well plate.
Concentrations of neurosteroids (1–11) were determined by HPLC. The apparatus was comprised of an Agilent 1100 binary pump (Agilent Technologies Inc., Wilmington, DE, USA), 1100 micro vacuum degasser, HP 1050 Auto-sampler, HP 1050 variable wavelength detector, operating at 225 nm. The chromatographic separations were achieved on a Supelco Supelcosil LC-Si analytical column (4.6 mm x 250 mm, 5 ml) (Supelco Inc., Bellefonte, PA, USA) by using isocratic elution of water containing 0.1% phosphoric acid and ACN with ratio of 30:70. The retention times of the compounds were ca. 4.3–4.4 min at the flow rate of 1.0 mL/min at room temperature. […] These HPLC methods were accurate (100 ± 10% of nominal concentration), precise (RSD% <10%), and selective (no interfering peaks) over the range 0.1–2 μM.
All data analyses, including Michaelis-Menten and Eadie-Hofstee analyses, were performed using GraphPad Prism v. […] Statistical differences between groups were tested using one-way ANOVA, followed by a two-tailed Tukey’s multiple comparison test and presented as mean ± SD, with statistically significant difference denoted by * p < 0.05, ** p < 0.01, *** p < 0.001.

OATP1A2 = system: OATP1A2; parameters: method as in PMID 31254566; Vmax: unit not given here; details: reference substrate; cited from earlier work
[4] = read-out: Transport Mechanism Type 1 Km
[5] = read-out: Transport Mechanism Type 2 Km

## C[C@@]12CCCC1C1CC[C@@H]3C[C@H](NC(=O)[C@@H](N)CCC(=O)O)CC[C@]3(C)C1CC2 (some centres unmarked) [Compound 11]
MCF-7 cells [1]
  Transport Mechanism Type 1 Vmax: 17.2 ± 2.1 pmol/mg/min
MCF-7 cells [1]; [4]
  Km: 24.2 µM

## C[C@@]12CCCC1C1CC[C@@H]3C[C@H](NC(=O)[C@@H](N)CC(=O)O)CC[C@]3(C)C1CC2 (some centres unmarked) [Compound 8]
MCF-7 cells [2]
  Cellular uptake at pH 5.5 compared to pH 7.4: increased the uptake of all neurosteroids, except of compound 8
MCF-7 cells [1]
  Transport Mechanism Type 1 Vmax: 8.0 ± 2.1 pmol/mg/min
  Transport Mechanism Type 2 Vmax: 28.2 pmol/mg/min and 28.2 ± 0.1 pmol/mg/min
MCF-7 cells [1]; [4]
  Km: 10.9 µM
MCF-7 cells [1]; [5]
  Km: 42.8 µM

## CC(C)(C)OC(=O)N[C@@H](CO)C(=O)N[C@@H]1CC[C@]2(C)C3CC[C@]4(C)CCCC4C3CC[C@@H]2C1 (some centres unmarked) [Compound 5]
MCF-7 cells [1]
  Transport Mechanism Type 1 Vmax: 5.3 pmol/mg/min and 5.3 ± 0.4 pmol/mg/min
  Transport Mechanism Type 2 Vmax: 34.7 ± 7.7 pmol/mg/min
MCF-7 cells [1]; [4]
  Km: 76.4 µM
MCF-7 cells [1]; [5]
  Km: ~960 µM

## C[C@@]12CCCC1C1CC[C@@H]3C[C@H](NC(=O)CCC(=O)O)CC[C@]3(C)C1CC2 (some centres unmarked) [Compound 6]
MCF-7 cells [1]
  Transport Mechanism Type 1 Vmax: 3.9 ± 0.5 pmol/mg/min
  Transport Mechanism Type 2 Vmax: 10.2 ± 0.1 pmol/mg/min

## CC(C)(C)OC(=O)N[C@@H](CCC(=O)O)C(=O)N[C@@H]1CC[C@]2(C)C3CC[C@]4(C)CCCC4C3CC[C@@H]2C1 (some centres unmarked) [Compound 10]
MCF-7 cells [1]; [4]
  Km: 23 µM
MCF-7 cells [1]; [5]
  Km: 282 µM

## CC(=O)[C@H]1CCC2C3CC[C@@H]4C[C@H](O)CC[C@]4(C)C3CC[C@@]21C (stereo partly drawn) [Compound 1, 3α5β-Pregnanolone, reference compound]
[3]
  Efflux transporter substrate status: substrates for all studied efflux transporters
MCF-7 cells [1]
  Transport Mechanism Type 1 Vmax: 26.3 ± 4.2 pmol/mg/min
MCF-7 cells [1]; [4]
  Km: 55.4 µM

## CC(=O)[C@H]1CCC2C3CC[C@@H]4C[C@H](OC(=O)[C@@H](N)CCC(=O)O)CC[C@]4(C)C3CC[C@@]21C (some centres unmarked) [Compound 2]
[3]
  Efflux transporter substrate status: efflux phenomenon can be abolished
[3]; 50 µM inhibitor, pH 7.4, MCF-7 cells
  Cellular uptake in the presence of efflux inhibitors elacridar or MK-571: not affected
MCF-7 cells [1]
  Uptake profile over concentration (saturation of transporter): did not reach the saturation stage

## CC(C)(C)OC(=O)N[C@@H](CC(=O)O)C(=O)N[C@@H]1CC[C@]2(C)C3CC[C@]4(C)CCCC4C3CC[C@@H]2C1 (some centres unmarked) [Compound 7]
MCF-7 cells [1]
  Transport Mechanism Type 1 Vmax: 3.0 ± 0.1 pmol/mg/min

## C[C@@]12CCCC1C1CC[C@@H]3C[C@H](NC(=O)CCCC(=O)O)CC[C@]3(C)C1CC2 (some centres unmarked) [Compound 9]
MCF-7 cells [1]
  Transport Mechanism Type 1 Vmax: 5.5 ± 0.6 pmol/mg/min
  Transport Mechanism Type 2 Vmax: 26.5 ± 3.0 pmol/mg/min
MCF-7 cells [1]; [4]
  Km: 9.2 µM
MCF-7 cells [1]; [5]
  Km: 67.8 µM

## C[C@H]1CCC2C3CC[C@@H]4C[C@H](NC(=O)CC(=O)O)CC[C@]4(C)C3CC[C@@]21C (some centres unmarked) [Compound 4]
MCF-7 cells [1]
  Transport Mechanism Type 1 Vmax: 13.9 ± 6.7 pmol/mg/min
MCF-7 cells [1]; [4]
  Km: ~233 µM

## C[C@]12CC[C@@H]3c4ccc(OS(=O)(=O)O)cc4CC[C@H]3[C@@H]1CCC2=O [Compound E3S, Estrone-3-Sulfate]
OATP1A2
  Km: 6.5 µM
  Vmax: 66 ± 8.5
  efficacy: 10.21

## C[C@@]12CCCC1C1CC[C@@H]3C[C@H](OC(=O)[C@@H](N)CCC(=O)O)CC[C@]3(C)C1CC2 (some centres unmarked) [Compound 3]
MCF-7 cells [1]
  Transport Mechanism Type 1 Vmax: 3.0 pmol/mg/min and 3.0 ± 0.4 pmol/mg/min
  Transport Mechanism Type 2 Vmax: 8.2 pmol/mg/min and 8.2 ± 0.1 pmol/mg/min
MCF-7 cells [1]; [4]
  Km: 7.7 µM
MCF-7 cells [1]; [5]
  Km: 25.2 µM

— publication PMC8472597, “Neurosteroids: Structure-Uptake Relationships and Computational Modeling of Organic Anion Transporting Polypeptides (OATP)1A2” (Molecules, 2021)
